These are literature values, as cited in patent US20110160143A1, “Topical Acyl Glutathione Psoriasis Compositions” (priority 2009, published 2011).

In this data set the test system is HIV patients. The conditions noted are these: oral administration.

For `O=C(O)CCCCC1CCSS1` (stereo not drawn) [alpha-lipoic acid, Alpha-lipoic acid], the glutathione levels entry is reported as “raises glutathione levels”; the safety and tolerability entry was “extremely safe and well tolerated”.
